Source: patent USRE36784E, “Chemoprotective isothiocyanates” (The Johns Hopkins University, priority 1997, dated 2000)
Entries after “also recorded” stand apart in the source; their conditions may differ. Where two headings read alike, the source gives them in different places.

How the values were obtained:
[1] = tested on: glutathione S-transferase (GST); experiment: Induction of glutathione S-transferase (GST) in mouse tissues after gavage; type: in vivo, mouse (female CD-1); conditions: for Ratio of specific activities (treated/control), GST, Forestomach / Ratio of specific activities (treated/control), GST, Glandular stomach / Ratio of specific activities (treated/control), GST, Liver / Ratio of specific activities (treated/control), GST, Lung / Ratio of specific activities (treated/control), GST, Proximal small intestine: gavage, 5 days
Method: (§1) The compounds were administered to 6week-old female CD1 mice (4 or 5 mice
(§2) per group) by gavage in indicated single daily doses in 0.1 ml of Emulpho
(§3) EL 620P (GAF. Linden, NJ) for 5 days. Cytosols were prepared from the
(§4) tissues 24 hr after the last treatment and assayed for enzyme activities
(§5) (glutathione Stransferase was measured with 1chloro-2,4-dinitrobenzene).
(§6) The specific activities (nmol · min^-1 · mg^-1
(§7) ± SEM) of organs of vehicletreated #control mice were as follows.
(§8) 54 ± 5.8: GST. 439 ± 34. Data are presented as mean ± SEM.

[2] = tested on: QR in BP^r cl mutant (defective in transport of the liganded Ah receptor to the nucleus); conditions: data not shown
QR (quinone reductase) = experiment: Induction of QR in mouse tissues after gavage; type: in vivo, mouse (female CD-1); conditions: for Ratio of specific activities (treated/control), QR, Forestomach / Ratio of specific activities (treated/control), QR, Glandular stomach / Ratio of specific activities (treated/control), QR, Liver / Ratio of specific activities (treated/control), QR, Lung / Ratio of specific activities (treated/control), QR, Proximal small intestine: gavage, 5 days
Method: as §1, §2, §3, §4, §5, §6, §7, §8

[3] = tested on: quinone reductase (QR) in Hepa 1c1c7 murine hepatoma cells; experiment: Induction of QR (inducer potency, CD value) in Hepa 1c1c7 murine hepatoma cells; type: cell-based; conditions: for EC (2-fold QR specific activity): Mus musculus, QR induction, Hepa 1c1c7 cells; for relative potency as inducers of QR: comparison in words, Table 1
Method: Assay of Inducer Potency. Inducer activity was measured in Hepa 1c1c7 murine hepatoma cells grown in 96-well microtiter plates (Prochaska and Santamaria, Anal. Biochem. 169:328-336 (1988); Prochaska et al., Proc. Natl. Acad. Sciences USA 89:2394-2398 (1992)). QR activity (based on the formation of the blue-brown reduced tetrazolium dye) was measured with an optical microtiter plate scanner in cell lysates prepared in one plate, and the cell density was determined in the second plate by staining with crystal violet. Quantitative information on specific activity of QR, the inducer potency, and the cytotoxicity of the extract or compound tested is obtained by computer analysis of the absorbances. One unit of inducer activity is defined as the amount that when added to a single microtiter well doubled the QR specific activity. The CD value is the concentration of a compound required to double the quinone reductase specific activity in Hepa 1c1c7 murine hepatoma cells.
Each of the analogs of sulforaphane was tested for the ability to induce QR in murine hepatoma cells by the assay described in Example 1.
Analogs were synthesized and tested in the hepatoma cell assay described in Example 1.

[4] = tested on: QR in cl mutant (which synthesizes inactive cytochrome P-450IA1); conditions: data not shown
[5] = tested on: phase I and phase II enzymes in mutants of Hepa 1c1c7 cells; conditions: phase II selective = monofunctional
[6] = tested on: phase I and phase II enzymes in mutants of Hepa 1c1c7 cells; conditions: Prochaska et al. 1988; cited from earlier work
female CD-1 mice = experiment: Toxicity in mice dosed by gavage; type: in vivo, mouse (female CD-1); conditions: compared with sulforaphane and erucin
From the text: The sulfone (erysolin) was more toxic, but even 5-μmol daily doses for 5 days elevated the specific activities of these enzymes in some tissues examined. We therefore conclude that sulforaphane and its analogues not only induce QR in Hepa 1c1c7 murine hepatoma cells but also induce both QR and glutathione transferase activities in a number of murine organs.

[7] = 15 μmol per mouse per day, lung
[8] = 5-μmol daily doses for 5 days, some tissues

## C[S+]([O-])CCCCN=C=S (racemic) [Sulforaphane]
[1]; 15 μmol daily for 5 days, lung
  rise in glutathione transferase activity in lung: to a lesser degree
[1]; 15 μmol per mouse per day
  Ratio of specific activities (treated/control), GST, Forestomach: 1.98 ± 0.08
  Ratio of specific activities (treated/control), GST, Glandular stomach: 2.97
  Ratio of specific activities (treated/control), GST, Liver: 1.86 ± 0.08
  Ratio of specific activities (treated/control), GST, Proximal small intestine: 2.13
[1]; [7]
  Ratio of specific activities (treated/control), GST, Lung: 1.17
[2]
  induction of QR in mutant cells: normal
QR (quinone reductase); 15 μmol daily for 5 days, lung
  rise in QR activity in lung: to a lesser degree
QR (quinone reductase); 15 μmol per mouse per day, *P < 0.05
  Ratio of specific activities (treated/control), QR, Forestomach: 1.70 ± 0.18
QR (quinone reductase); 15 μmol per mouse per day
  Ratio of specific activities (treated/control), QR, Glandular stomach: 2.35 ± 0.06
  Ratio of specific activities (treated/control), QR, Liver: 2.45 ± 0.07
  Ratio of specific activities (treated/control), QR, Proximal small intestine: 2.34 ± 0.19
QR (quinone reductase); [7]
  Ratio of specific activities (treated/control), QR, Lung: 1.37 ± 0.14
[3]; Hepa-1c1c7, Table 1, read-out: CD value
  EC (2-fold QR specific activity): 0.4 to 0.8 µM
[3]
  relative potency as inducers of QR: most potent monofunctional inducer that has been identified; also recorded: equipotent
[4]
  induction of QR in mutant cells: normal
[5]
  inducer type: monofunctional inducer

## S=C=NCc1ccccc1 [Benzylisothiocyanate]
[6]
  inducer type: monofunctional inducer

## CS(=O)(=O)CCCCN=C=S [Erysolin]
[1]; 5 μmol per mouse per day
  Ratio of specific activities (treated/control), GST, Forestomach: 1.45 ± 0.15
  Ratio of specific activities (treated/control), GST, Glandular stomach: 1.94
  Ratio of specific activities (treated/control), GST, Liver: 1.08 ± 0.11
  Ratio of specific activities (treated/control), GST, Proximal small intestine: 0.87
[1]; 5 μmol per mouse per day, lung
  Ratio of specific activities (treated/control), GST, Lung: 1.09
[1]; [8]
  elevation of glutathione transferase specific activity: elevated
QR (quinone reductase); 5 μmol per mouse per day
  Ratio of specific activities (treated/control), QR, Forestomach: 1.05 ± 0.21
  Ratio of specific activities (treated/control), QR, Glandular stomach: 1.57 ± 0.08
  Ratio of specific activities (treated/control), QR, Liver: 1.62 ± 0.09
  Ratio of specific activities (treated/control), QR, Proximal small intestine: 1.22 ± 0.20
QR (quinone reductase); 5 μmol per mouse per day, lung
  Ratio of specific activities (treated/control), QR, Lung: 1.00 ± 0.11
QR (quinone reductase); [8]
  elevation of QR specific activity: elevated
Female CD-1 mice
  toxicity in mice: more toxic
[3]; Hepa-1c1c7, read-out: CD value, Table 1
  EC (2-fold QR specific activity): 0.82 µM
[3]
  relative potency as inducers of QR: equipotent
[3]; in cell culture
  activity as inducers compared with sulforaphane and sulforaphene: less active
